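48-hour exposure; five concentrations; linearly interpolated endpoints. Here, GI50 denotes the concentration required for 50% inhibition of growth.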 The source made the active and inactive calls. Rule as the data show it: active = GI50 up to about 1.1 µM and inactive = higher.
Experiments:
Assay in all cases: inhibition of tumour cell growth, NCI panel, 48 h
Hs-578T = test system: Hs-578T
HOP-62 = test system: HOP-62
MDA-MB-231 = test system: MDA-MB-231
K562 = test system: K562
A549 = test system: A549
RPMI-8226 = test system: RPMI-8226
UACC-62 = test system: UACC-62
OVCAR-4 = test system: OVCAR-4
MOLT-4 = test system: MOLT-4
MDA-MB-435 = test system: MDA-MB-435
TK-10 = test system: TK-10
SNB-19 = test system: SNB-19
NCI/ADR-RES = test system: NCI/ADR-RES
EKVX = test system: EKVX
OVCAR-8 = test system: OVCAR-8
UACC-257 = test system: UACC-257
ACHN = test system: ACHN
HCT-116 = test system: HCT-116
MDA-N = test system: MDA-N
SR = test system: SR

N#CC(C#N)=C(N)/C(C#N)=C/c1cc(O)c(O)c(Br)c1
GI50 (Hs-578T): 38.9 µM (inactive)
GI50 (HOP-62): > 69.7 µM (inactive)
GI50 (MDA-MB-231): 88.5 µM (inactive)
GI50 (K562): 46.6 µM (inactive)
GI50 (A549): 59.4 µM (inactive)
GI50 (RPMI-8226): > 100 µM (inactive)
GI50 (UACC-62): 39.4 µM (inactive)
GI50 (OVCAR-4): 38.6 µM (inactive)
GI50 (MOLT-4): 36.2 µM (inactive)
GI50 (MDA-MB-435): 78.5 µM (inactive)
GI50 (TK-10): > 100 µM (inactive)
GI50 (SNB-19): > 67.3 µM (inactive)
GI50 (NCI/ADR-RES): 36.4 µM (inactive)
GI50 (EKVX): 52.8 µM (inactive)
GI50 (OVCAR-8): 48.1 µM (inactive)
GI50 (UACC-257): 72.4 µM (inactive)
GI50 (ACHN): 77.1 µM (inactive)
GI50 (HCT-116): 37.8 µM (inactive)
GI50 (MDA-N): 99.5 µM (inactive)
GI50 (SR): 37.8 µM (inactive)

CC(=O)Nc1nc(C)c(S(=O)(=O)NC(=O)NC2NC(=O)NC2=O)s1 (stereo not given)
GI50 (Hs-578T): > 100 µM (inactive)
GI50 (HOP-62): > 100 µM (inactive)
GI50 (MDA-MB-231): > 100 µM (inactive)
GI50 (K562): > 100 µM (inactive)
GI50 (A549): > 100 µM (inactive)
GI50 (RPMI-8226): > 100 µM (inactive)
GI50 (UACC-62): > 100 µM (inactive)
GI50 (OVCAR-4): > 100 µM (inactive)
GI50 (MOLT-4): > 100 µM (inactive)
GI50 (MDA-MB-435): > 100 µM (inactive)
GI50 (TK-10): > 100 µM (inactive)
GI50 (SNB-19): > 100 µM (inactive)
GI50 (NCI/ADR-RES): > 100 µM (inactive)
GI50 (EKVX): > 100 µM (inactive)
GI50 (OVCAR-8): > 100 µM (inactive)
GI50 (UACC-257): > 100 µM (inactive)
GI50 (ACHN): > 100 µM (inactive)
GI50 (HCT-116): > 100 µM (inactive)
GI50 (MDA-N): > 100 µM (inactive)
GI50 (SR): > 100 µM (inactive)

O=C1NC(c2cccc(OCc3ccccc3)c2)Nc2ccccc21 (stereo not given)
GI50 (Hs-578T): 0.241 µM (active)
GI50 (HOP-62): 0.359 µM (active)
GI50 (MDA-MB-231): 0.251 µM (active)
GI50 (K562): 0.0189 µM (active)
GI50 (A549): 0.13 µM (active)
GI50 (RPMI-8226): 0.0416 µM (active)
GI50 (UACC-62): 0.495 µM (active)
GI50 (OVCAR-4): 13.7 µM (inactive)
GI50 (MOLT-4): 0.23 µM (active)
GI50 (MDA-MB-435): 0.023 µM (active)
GI50 (TK-10): 0.603 µM (active)
GI50 (SNB-19): 0.324 µM (active)
GI50 (NCI/ADR-RES): 0.117 µM (active)
GI50 (EKVX): 0.339 µM (active)
GI50 (OVCAR-8): 0.315 µM (active)
GI50 (UACC-257): 1.36 µM (inactive)
GI50 (ACHN): 0.442 µM (active)
GI50 (HCT-116): 0.0465 µM (active)
GI50 (MDA-N): 0.0187 µM (active)
GI50 (SR): < 0.0298 µM (active)
